Results as given in ChEMBL document CHEMBL1152299, “Indazole-based liver X receptor (LXR) modulators with maintained atherosclerotic lesion reduction activity but diminished stimulation of hepatic triglyceride synthesis” (J Med Chem, 2008).

Assays:
[1] = molecular target: T1, Oxysterols receptor LXR-beta (Homo sapiens, UniProt P55055)
T1 sequence (P55055 whole entry): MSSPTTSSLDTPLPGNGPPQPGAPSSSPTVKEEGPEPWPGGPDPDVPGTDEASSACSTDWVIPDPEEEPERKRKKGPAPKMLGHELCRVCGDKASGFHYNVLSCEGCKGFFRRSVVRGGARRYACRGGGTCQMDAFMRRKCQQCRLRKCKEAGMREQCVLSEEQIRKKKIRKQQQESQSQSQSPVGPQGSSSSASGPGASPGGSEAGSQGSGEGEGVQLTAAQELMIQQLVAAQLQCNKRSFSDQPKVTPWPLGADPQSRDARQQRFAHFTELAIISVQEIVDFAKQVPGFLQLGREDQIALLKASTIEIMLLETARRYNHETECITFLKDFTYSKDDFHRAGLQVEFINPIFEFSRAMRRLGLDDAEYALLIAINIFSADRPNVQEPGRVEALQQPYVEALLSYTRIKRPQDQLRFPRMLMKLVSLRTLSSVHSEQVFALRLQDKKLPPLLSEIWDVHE

[2] = molecular target: T2, Nuclear receptor subfamily 1 group I member 2 (Homo sapiens, UniProt O75469)
T2 sequence (O75469 whole entry): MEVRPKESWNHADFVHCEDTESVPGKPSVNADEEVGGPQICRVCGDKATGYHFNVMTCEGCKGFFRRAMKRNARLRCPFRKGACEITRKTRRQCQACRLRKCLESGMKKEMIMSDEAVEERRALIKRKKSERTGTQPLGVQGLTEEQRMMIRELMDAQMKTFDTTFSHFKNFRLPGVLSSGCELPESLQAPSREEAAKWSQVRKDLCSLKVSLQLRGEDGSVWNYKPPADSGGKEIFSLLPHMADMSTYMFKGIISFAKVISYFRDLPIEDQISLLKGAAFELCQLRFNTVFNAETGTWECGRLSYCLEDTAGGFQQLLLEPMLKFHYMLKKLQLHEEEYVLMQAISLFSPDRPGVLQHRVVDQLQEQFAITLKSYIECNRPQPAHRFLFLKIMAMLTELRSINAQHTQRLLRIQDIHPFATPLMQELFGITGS

Progesterone receptor = molecular target: T3, Progesterone receptor (Homo sapiens, UniProt P06401); experiment: Displacement of radiolabeled progesterone from human progesterone receptor by filter paper assay
T3 sequence (P06401 whole entry): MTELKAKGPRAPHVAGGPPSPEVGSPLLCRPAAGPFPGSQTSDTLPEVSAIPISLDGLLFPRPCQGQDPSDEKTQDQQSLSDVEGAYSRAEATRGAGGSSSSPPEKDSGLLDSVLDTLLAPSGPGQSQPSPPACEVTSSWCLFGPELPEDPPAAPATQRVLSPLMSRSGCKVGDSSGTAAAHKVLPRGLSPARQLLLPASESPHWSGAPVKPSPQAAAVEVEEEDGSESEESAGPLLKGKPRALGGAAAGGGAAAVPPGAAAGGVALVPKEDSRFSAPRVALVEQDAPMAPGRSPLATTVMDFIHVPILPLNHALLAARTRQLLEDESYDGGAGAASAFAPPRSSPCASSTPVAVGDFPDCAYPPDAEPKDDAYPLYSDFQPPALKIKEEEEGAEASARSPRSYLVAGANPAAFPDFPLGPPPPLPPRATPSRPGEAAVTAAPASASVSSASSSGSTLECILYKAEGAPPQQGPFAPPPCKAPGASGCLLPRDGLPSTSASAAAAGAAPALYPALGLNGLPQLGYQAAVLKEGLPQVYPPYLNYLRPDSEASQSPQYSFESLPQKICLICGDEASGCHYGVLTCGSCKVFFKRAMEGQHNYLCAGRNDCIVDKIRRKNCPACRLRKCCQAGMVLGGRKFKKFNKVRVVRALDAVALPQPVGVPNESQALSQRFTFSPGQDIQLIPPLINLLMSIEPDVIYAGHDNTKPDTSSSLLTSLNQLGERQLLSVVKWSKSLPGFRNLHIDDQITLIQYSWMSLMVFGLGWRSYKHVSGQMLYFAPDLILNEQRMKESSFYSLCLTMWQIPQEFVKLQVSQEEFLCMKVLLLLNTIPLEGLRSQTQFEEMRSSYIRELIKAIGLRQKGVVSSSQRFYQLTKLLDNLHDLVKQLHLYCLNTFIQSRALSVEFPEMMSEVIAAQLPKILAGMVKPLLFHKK

THP-1 [3] = experiment: Effect on ABCA1 gene expression in human differentiated THP1 cells; type: functional, cell-based
THP-1 [4] = experiment: Effect on ABCA1 gene expression in human differentiated THP1 cells relative to TO901317; type: functional
THP-1 [5] = experiment: Stimulation of [3H]cholesterol efflux in human THP1 foam cells loaded with ac-LDL; type: functional, cell-based
THP-1 [6] = experiment: Stimulation of [3H]cholesterol efflux in human THP1 foam cells loaded with ac-LDL relative to TO901317; type: functional
HepG2 [7] = experiment: Effect on SREBP1c gene expression in human HepG2 cells; type: functional, cell-based
HepG2 [8] = experiment: Effect on SREBP1c gene expression in human HepG2 cells relative to TO901317; type: functional
HepG2 [9] = experiment: Effect on triglyceride accumulation in human HepG2 cells; type: functional, cell-based
HepG2 [10] = experiment: Effect on triglyceride accumulation in human HepG2 cells relative to TO901317; type: functional
[11] = molecular target: T4, Oxysterols receptor LXR-alpha (Homo sapiens, UniProt Q13133)
[12] = molecular target: T4, Oxysterols receptor LXR-alpha; remark: listed apart in the source

Row | IC50 [1] | IC50 [2] | IC50 (Progesterone receptor) | EC50 (THP-1 [3]) | EC50 (THP-1 [5]) | EC50 (HepG2 [7]) | EC50 (HepG2 [9]) | IC50 [11] | EC50 [12] | SMILES | Efficacy (THP-1 [4]) | Efficacy (THP-1 [6]) | Efficacy (HepG2 [8]) | Efficacy (HepG2 [10])
1 | 0.024 µM | 1.77 µM | > 1 µM | 0.541 µM | 1.28 µM | 2.11 µM | 1.91 µM | 0.179 µM | 6.66 µM | Fc1ccc(-c2c3cccc(C(F)(F)F)c3nn2Cc2ccc(F)cc2Cl)cc1 [LXR-623] | 100% | 140% | 58% | 35%
2 | 0.033 µM | 2.16 µM | > 10 µM | 0.551 µM | 0.549 µM | 1.22 µM | 0.998 µM | 0.248 µM | 6.1 µM | Fc1ccc(-c2c3cccc(C(F)(F)F)c3nn2Cc2ccccc2F)cc1 | 89% | 132% | 72% | 38%
